Laboratory results reported in the NIST ThermoML archive (doi:10.1021/je800600q).
± gives the expanded uncertainty stated by the source.

Settings: Crystal; DTA

Normal melting temperature: 91.02 ± 0.5 °C
Structure (SMILES): CCc1occc(=O)c1O [2-ethyl-3-hydroxy-4H-pyran-4-one]
